Laboratory results published in patent US5320948A, “Cephalosporin C acylase” (Fujisawa Pharmaceutical Co., Ltd., priority 1990, dated 1994).
Several values for one entry are separate records, joined by “and”; a condition that tells them apart may be missing. Equal values may be shown once. Read-outs that look alike come from different tables or passages of the source.

Experiments:
CC acylase N-176 [1] = assay: Determination of inhibition constants (Ki) for reaction products, GL-7ACA acylase activity; assay type: biochemical, Pseudomonas diminuta N-176; settings: for mode of inhibition: Lineweaver-Burk plots in absence and presence of inhibitor; for Ki: substrate GL-7ACA, 0.1M glycine buffer pH 9, 37° C., 3 min
Experimental: Enzyme activity was assayed in the presence of 7-ACA or glutaric acid. For determination of Ki of 7-ACA, reaction mixtures (200 μl) containing 0.1M glycine buffer (pH 9), 0.26-2.08 μmole of GL-7ACA, 0.182-1.0 μmole of 7-ACA and 1 μg of enzyme was incubated at 37° C. for 3 min. For determination of Ki of glutaric acid, reaction mixture (200 μl) containing 0.1M glycine buffer (pH 9), 0.096-2.08 μmole of GL-7ACA, 0.25-0.5 μmole of glutaric acid and 0.5 μg of the enzyme was incubated at 37° C. for 3 min. […] Ki values were calculated from the apparent Michaelis constants (Kmapp), Km and Vmax.

CC acylase N-176 [2] = assay: Substrate profile of CC acylase N-176, HPLC assay; assay type: biochemical, Pseudomonas diminuta N-176; settings: percentage compared to the activity for GL-7ACA; 2 mg substrate, 20 μg enzyme, pH 9, 50° C., 2 min
Experimental: (§1) Transformant colonies were picked up and grown overnight at 30° C. in 1 ml of 2% Bouillon (Eiken Chemical Co., Ltd., Japan) supplemented with 1 mM […] (IPTG: Sigma Chemical Co., Ltd., U.S.A.). Cells were harvested by centrifugation and resulting cell pellets were used for assay. Reaction mixture (200 μl) containing 100 mM phosphate (pH 8), 2 mg of GL-7ACA or cephalosporin C Na and cell pellets were thoroughly mixed and incubated for 10 min at 37° C. The reaction was terminated by the addition of 200 μl of 4% acetic acid. Samples were applied to a Inertsil ODS-2 column (4.6 mm×150 mm)(Gasukuro Kogyo Co., Ltd., Japan) and elution was performed with 0.567 g/l of Na2 PO4, 0.36 g/l of KH2 PO4 and 2-4% methanol. 7ACA was detected with absorption at 254 nm.
Enzyme activity was determined by HPLC assay. Reaction mixture (200 μl) containing 100 mM glycine buffer (pH 9), 2 mg of a substrate and 20 μg of the enzyme was incubated at 50° C. for 2 min and the reaction was terminated by addition of 4% acetic acid. The relative enzyme activity was expressed as a percentage compared to the activity for GL-7ACA. To be noted, acylase activity for cephalosporin C was examined also by detecting the production of α-aminoadipic acid with the amino acid analyzer (Hitachi Co., Ltd., Japan).

CC acylase N-176 [3] = assay: Specific enzyme activity, HPLC assay (Vmax and Km by Lineweaver-Burk plot); assay type: biochemical, Pseudomonas diminuta N-176; settings: substrate of CC acylase N-176, 100 mM glycine buffer pH 9, 37° C., 2 min; for Km: read-out: Michaelis constant (Km)
Experimental: as §1
The activity of the cephalosporin C acylase was determined by HPLC assay. Reaction mixtures (200 μl) containing 100 mM glycine buffer (pH 9), 1.25-40 mM Cephalosporin C Li and 19 μg of the enzyme is used for assay of cephalosporin C acylase, meanwhile for assay of GL-7ACA acylase activity, reaction mixture (200 μl) containing 100 mM glycine buffer (pH 9), 0.48-10.4 mM GL-7ACA and 0.5 μg of the enzyme is used. Reaction mixtures were incubated for 2 min at 37° C. and the reaction was terminated by addition of 200 μl of 4% acetic acid. Conditions for HPLC were the same as those described in Example 1.3. All assays used later in this section was HPLC method. Specific enzyme activity was expressed as unit per mg of protein. Protein concentrations were determined by Bio-Rad protein assay kit (Bio-Rad Co., Ltd., U.S.A.) with bovine serum albumin as a standard. Maximum specific enzyme activity (Vmax) and Michaelis constant (Km) were calculated from slope and intersection which were obtained by Lineweaver-Burk plot (Cf. M. Dixon and E. C. Webb, Enzymes, Longmans, London, 1958). Maximum specific enzyme activity of CC acylase N-176 was 100 and 3.1 units/mg for GL-7ACA and cephalosporin C, respectively.

CC acylase N-176 [4] = assay type: biochemical, Pseudomonas diminuta N-176; settings: pH 9
Experimental: Effect of p-chloromercuribenzoate (pCMB, Sigma Chemical Co., Ltd.), phenylmethylsulfonyl fluoride (PMSF, Sigma) and ethylenediaminetetraacetic acid (EDTA, Nacalai Tesque Inc., Japan) on the activity of CC acylase N-176 was examined as follows. Four μg of CC acylase N-176 was treated at 37° C. for 4 hours with 0.1 or 1.0 mM pCMB, 0.1, 1.0, 2.0 or 5.0 mM PMSF, or 1.0 or 5.0 mM EDTA in 200 μl of 0.1M glycine buffer (pH 9). Residual activity of the treated enzyme was assayed by adding 22 μl of GL-7ACA (100 mg/ml) as a substrate to the mixture The reaction was performed at 37° C. for 2 min. Residual activity was expressed as a percentage compared to the activity of the enzyme treated with blank solution.

Optimum pH of the enzyme = assay type: biochemical; settings: 0.1M buffers pH 6-10, 37° C., 2 min
Experimental: Reaction mixture (200 μl) containing 0.1M buffer (phosphate buffer between pH 6-8, Tris HCl buffer between pH 7-9 and glycine buffer between pH 8-10), 2 mg of GL-7ACA or 3.3 mg of cephalosporin C Li and 3 μg of the enzyme was used. The reaction was performed at 37° C. for 2 min. Optimum pH for the enzyme was 9.

[5] = Optimum temperature of the enzyme; assay type: biochemical; settings: 0.1M glycine buffer pH 9, 2 mg GL-7ACA, 2 min, 25° to 60° C.
Experimental: Reaction mixture (200 μl) containing 0.1M glycine buffer (pH 9), 2 mg of GL-7ACA and 2 μg of the enzyme were incubated for 2 min at various temperature from 25° to 60° C. The optimum temperature was 50° C.

[6] = Determination of isoelectric point (pI) by analytical isoelectric focusing; assay type: physicochemical; settings: 4% polyacrylamide gel, Ampholine pH range 3.5-10
Experimental: Analytical isoelectric focusing of CC acylase N-176 was performed according to the method of Olson et al(Cf.FEMS Microbiol. Lett. 1, 157-162(1977)). Purified acylase preparation was applied on thin layer of 4% polyacrylamide gel containing 2% Ampholine pH range 3.5-10 (Pharmacia LKB Biotechnology, Sweden). The proteins were electrofocused for 2 hours at 100 volts using isoelectric focusing apparatus SJ-1071EC (ATTO Co., Ltd., Japan). After electrofocusing, the gel was stained with Coomassie Brilliant Blue R-250 and the isoelectric point was determined from the calibration curve made with pI markers (Pharmacia LKB Technology) which were run simultaneously with the sample. The pI value of CC acylase N-176 was estimated to be 4.5.

[7] = inhibitor 0.1 mM, treated at 37° C. for 4 hours, substrate GL-7ACA
[8] = inhibitor 1.0 mM, treated at 37° C. for 4 hours, substrate GL-7ACA

CC(=O)OCC1=C(C(=O)O)N2C(=O)[C@@H](N)[C@H]2SC1 [7-ACA, 7-aminocephalosporanic acid]
mode of inhibition (CC acylase N-176 [1]): competitive | Ki (CC acylase N-176 [1]): 1400 µM

CC(=O)OCC1=C(C(=O)O)N2C(=O)[C@@H](NC(=O)CCCCC(=O)O)[C@H]2SC1 [Adipyl 7ACA, 7(5-carboxypentanamido)-3-acetoxymethyl-3-cephem-4-carboxyli acid]
Relative enzyme activity (CC acylase N-176 [2]): 19%

CC(=O)OCC1=C(C(=O)O)N2C(=O)[C@@H](NC(=O)CCC[C@@H](N)C(=O)O)[C@H]2SC1 [Cephalosporin C]
Relative enzyme activity (CC acylase N-176 [2]): 4% | Maximum specific enzyme activity (Vmax) (CC acylase N-176 [3]): 3.1 units/mg | Km (CC acylase N-176 [3]): 4.8 mM

CC(=O)OCC1=C(C(=O)O)N2C(=O)[C@@H](NC(=O)Cc3cccs3)[C@H]2SC1 [Cephalothin]
Relative enzyme activity (CC acylase N-176 [2]): 0.08%

O=C(O)CN(CCN(CC(=O)O)CC(=O)O)CC(=O)O [EDTA, ethylenediaminetetraacetic acid]
Residual enzyme activity (%) (CC acylase N-176 [4]): 91% and 73%

CC(=O)OCC1=C(C(=O)O)N2C(=O)[C@@H](NC(=O)CCCC(=O)O)[C@H]2SC1 [Glutaryl 7ACA, 7(4-carboxybutanamdio)-3-acetoxymethyl-3-cephem-4-carboxylic acid]
Relative enzyme activity (CC acylase N-176 [2]): 100% | Maximum specific enzyme activity (Vmax) (CC acylase N-176 [3]): 100 units/mg | Km (CC acylase N-176 [3]): 2.6 mM

CC(=O)N[C@H](CCCC(=O)N[C@@H]1C(=O)N2C(C(=O)O)=C(COC(C)=O)CS[C@H]12)C(=O)O [N-Acetylcephalosporin C]
Relative enzyme activity (CC acylase N-176 [2]): 0.1%

CC(=O)OCC1=C(C(=O)O)N2C(=O)[C@@H](NC(=O)CCC[C@@H](NC(=O)c3ccccc3)C(=O)O)[C@H]2SC1 [N-Benzyoylcephalosporin C, N-benzoylcephalosporin C]
Relative enzyme activity (CC acylase N-176 [2]): 0.0003%

O=S(=O)(F)Cc1ccccc1 [PMSF, phenylmethylsulfonyl fluoride]
Residual enzyme activity (%) (CC acylase N-176 [4]; [7]): 96% | Residual enzyme activity (%) (CC acylase N-176 [4]; [8]): 91% | Residual enzyme activity (%) (CC acylase N-176 [4]; inhibitor 2.0 mM, treated at 37° C. for 4 hours, substrate GL-7ACA): 79% | Residual enzyme activity (%) (CC acylase N-176 [4]; inhibitor 5.0 mM, treated at 37° C. for 4 hours, substrate GL-7ACA): 62%

CC(=O)OCC1=C(C(=O)O)N2C(=O)[C@@H](NC(=O)CCC(=O)O)[C@H]2SC1 [Succinyl 7ACA, 7(3-carboxypropionamido)-3-acetoxymethyl-3-cephem-4-carboxylic acid]
Relative enzyme activity (CC acylase N-176 [2]): 32%

O=C(O)CCCC(=O)O [glutaric acid]
mode of inhibition (CC acylase N-176 [1]): competitive | Ki (CC acylase N-176 [1]): 2500 µM

O=C(O)c1cc[c]([Hg][Cl])cc1 [pCMB, p-chloromercuribenzoate]
Residual enzyme activity (%) (CC acylase N-176 [4]; [7]): 7.8% | Residual enzyme activity (%) (CC acylase N-176 [4]; [8]): 4.6%

B1: CC acylase N-176: new cephalosporin C acylase derived from Pseudomonas diminuta N-176, composed of α and β subunits (protein)
chain: MTMAANTDRAVLQAALPPLSGSLPIPGLSASVRVRRDAWGIPHIKASGEADAYRALGFVHSQDRLFQMELTRRKALGRAAEWLGAEAAEADILVRRLGMEKVCRRDFEALGVEAKDMLRAYVAGVNAFLASGAPLPVEYGLLGAEPEPWEPWHSIAVMRRLGLLMGSVWFKLWRMLALPVVGAANALKLRYDDGGRDLLCIPPGAEADRLEADLATLRPAVDALLKAMGGDASDAAGGGSNNWAVAPGRTATGRPILAGDPHRVFEIPGMYAQHHLACDRFDMIGLTVPGVPGFPHFAHNGKVAYCVTHAFMDIHDLYLEQFAGEGRTARFGNDFEPVAWSRDRIAVRGGADREFDIVETRHGPVIAGDPRDGAALTLRSVQFAETDLSFDCLTRMPGASTVAQLYDATRGWGLIDHNLVAGDVAGSIGHLVRARVPSRPRENGWLPVPGWSGEHEWRGWIPHEAMPRVIDPPGGIIVTANNRVVADDHPDYLCTDCHPPYRAERIMKRLVANPAFAVDDAAAIHADTLSPHVGLLRRRLEALGARDDSAAEGLRQMLVAWDGRMDAASEVASAYNAFRRALTRLVTDRSGLEQAISHPFAAVAPGVSPQGQVWWAVPTLLRDDDAGMLKGWSWDQALSEALSVASQNLTGRSWGEEHRPRFTHPLATQFPAWAGLLNPASRPIGGDGDTVLANGLVPSAGPQATYGALSRYVFDVGNWDNSRWVVFHGASGHPASAHYADQNAPWSDCAMVPMLYSWDRIAAEAVTSQELVPA
Optimum pH (Optimum pH of the enzyme): 9 | optimum temperature [5]: 50 °C | pI value [6]: ~4.5
